# Measurements reported in paper PMC6792352, “Limited Chemical Structural Diversity Found to Modulate Thyroid Hormone Receptor in the Tox21 Chemical Library” (Environmental Health Perspectives, 2019).
# Where a name gives a salt, the structure may show the parent alone.
# Assay: in vitro
# Details: rat, gh3-tre-luc cells, AC50 (uM) modified / 1000
row,Structure (SMILES),CC50 at 24 h
1,CN1CCC[C@@H]1Cc1c[nH]c2ccc(CCS(=O)(=O)c3ccccc3)cc12 [Eletriptan],21.1 µM
2,CC(C)Oc1ccccc1O [2-Isopropoxyphenol],> 90 µM
3,CN1CCCC1=O [N-Methyl-2-pyrrolidone],> 90 µM
4,Cc1ccccc1Br [2-Bromotoluene],> 90 µM
5,C1CCN(CN2CCCCC2)CC1 [Dipiperidinomethane],> 90 µM
6,CC(C)(C)c1ccc(OC(=O)c2ccccc2O)cc1 [4-tert-Butylphenyl salicylate],> 90 µM
7,O=C1Nc2ccccc2C1(c1ccc(O)cc1)c1ccc(O)cc1 [Oxyphenisatin],61.2 µM
8,CC(C)=CCC/C(C)=C/CO [Geraniol],> 90 µM
9,COC(=O)C1=C(C)NC(C)=C(C(=O)OCC(C)=O)C1c1ccccc1[N+](=O)[O-] (centres unmarked) [Aranidipine],8.18 µM
10,"CC(C)(C1CCC(O)CC1)C1CCC(O)CC1 (centres unmarked) [4,4'-Propane-2,2-diyldicyclohexanol]",> 90 µM
11,"O=[N+]([O-])c1cc(C(F)(F)F)cc([N+](=O)[O-])c1Cl [2-Chloro-1,3-dinitro-5-(trifluoromethyl)benzene]",> 90 µM
12,C=CCOCC(CO)(CO)CO [Pentaerythritol allyl ether],> 60 µM
13,O=C(c1ccccc1)C(O)c1ccccc1 (centres unmarked) [Benzoin],> 90 µM
14,CCOC(=O)[C@H](CCc1ccccc1)N[C@@H](C)C(=O)N1[C@H](C(=O)O)C[C@@H]2CCC[C@@H]21 [Ramipril],> 50 µM
15,C/N=C(\NC)NCc1ccccc1 [Bethanidine sulfate (2:1)],> 50 µM
16,"CC1(C)C(O)C(C)(C)C1O (centres unmarked) [2,2,4,4-Tetramethylcyclobutane-1,3-diol]",> 90 µM
17,O=C(O)/C=C/c1c[nH]cn1 [Urocanic acid],> 90 µM
18,CCCCCCCCCCCCCCCC(=O)OC[C@H](O)[C@H]1OC(=O)C(O)=C1O [Ascorbyl palmitate],> 50 µM
19,CC(=O)c1ccc2c(c1)N(CCCN1CCN(CCO)CC1)c1ccccc1S2 [Acetophenazine dimaleate],16.5 µM
20,c1ccc(OCc2ccc(CCCN3CCOCC3)cc2)cc1 [Fomocaine],16.1 µM
21,C[C@H](Cc1ccc(OCC(=O)O)cc1)NC[C@H](O)c1csc(C(F)(F)F)n1 [CP-114271],> 90 µM
22,CN(CCOc1ccc(NS(C)(=O)=O)cc1)CCc1ccc(NS(C)(=O)=O)cc1 [Dofetilide],> 50 µM
23,CCOC(=O)C(=O)OCC [Diethyl oxalate],> 90 µM
24,"CC(C)(C)CC(C)(C)N [2,4,4-Trimethyl-2-pentanamine]",> 90 µM
25,CC1(C)C[C@@H]1C(=O)N/C(=C\CCCCSC[C@H](N)C(=O)O)C(=O)O [Cilastatin sodium],> 50 µM
26,"CCc1ccc(CC)cc1 [1,4-Diethylbenzene]",> 90 µM

row,Structure (SMILES),CC50 at 24 h
1,C=O [Formalin],> 100 µM
2,CN(N=O)c1ccc([N+](=O)[O-])cc1 [N-Nitroso-N-methyl-4-nitroaniline],> 90 µM
3,CC(=O)Oc1ccccc1C(N)=O [Acetylsalicylamide],> 50 µM
4,NCCc1cc[nH]n1 [Betazole hydrochloride],> 20 µM
5,"CCCC(=O)c1cc(O)c(O)cc1O [2',4',5'-Trihydroxybutyrophenone]",> 90 µM
6,NCCOCCO [2-(2-Aminoethoxy)ethanol],> 90 µM
7,CCN(CC)C(=O)c1cccc(C)c1 [DEET],> 90 µM
8,C=CC(=O)OC [Methyl acrylate],> 90 µM
9,FC(F)(F)C(=NOCC1OCCO1)c1ccc(Cl)cc1 [Fluxofenim],> 90 µM
10,O=C(NCCCN1CCOCC1)c1ccc(Cl)cc1 [Eprobemide],> 50 µM
11,COc1ccc(OC)cc1 [Hydroquinone dimethyl ether],> 90 µM
12,COCC(C)OCC(C)OC(C)=O (centres unmarked) [Dipropyleneglycol methyl ether acetate],> 90 µM
13,CC1CCN(CCCC(=O)c2ccc(F)cc2)CC1 [Methylperone],> 50 µM
14,O=[N+]([O-])c1ccc2ncccc2c1 [6-Nitroquinoline],> 90 µM
15,CC(C)(O)c1cnn2c(-c3ccc(F)c(-c4c(F)cccc4C#N)c3)cnc2n1 [PharmaGSID_47330],> 90 µM
16,C[C@@H]1O[C@@H](OC[C@H]2O[C@@H](Oc3c(-c4ccc(O)c(O)c4)oc4cc(O)cc(O)c4c3=O)[C@H](O)[C@@H](O)[C@@H]2O)[C@H](O)[C@H](O)[C@H]1O [Rutin],57.3 µM
17,O=C1CCCCCCCCCCOCCCCO1 [12-Oxahexadecanolide],> 90 µM
18,"O=C(O)C(c1ccc(Cl)cc1)c1ccc(Cl)cc1 [p,p'-DDA]",> 90 µM
19,CCCC(C)C(=O)O (centres unmarked) [2-Methylpentanoic acid],> 90 µM
20,O=C(O)c1ccccc1C(=O)OCc1ccccc1 [Monobenzyl phthalate],> 90 µM
21,C=CC1=C(C)c2cc3[nH]c(cc4nc(cc5[nH]c(cc1n2)c(C)c5CCC(=O)O)C(CCC(=O)O)=C4C)c(C)c3C=C [Protoporphyrin disodium],> 50 µM
22,C=CCOC(=O)c1ccccc1C(=O)OCC=C [Diallyl phthalate],> 90 µM
23,Cn1cc(C2=C(c3cn(C4CCN(Cc5ccccn5)CC4)c4ccccc34)C(=O)NC2=O)c2ccccc21 [Enzastaurin],> 50 µM
24,CO[C@H]1O[C@H](CO)[C@@H](O)[C@H](O)[C@H]1O [Methyl alpha-D-glucopyranoside],> 90 µM
25,"CCNC(=S)NCC [N,N'-Diethylthiourea]",> 90 µM
26,N#CCCl [Chloroacetonitrile],> 100 µM

row,Structure (SMILES),CC50 at 24 h
1,C=C(C)C(=O)OCC(CC)CCCC (centres unmarked) [2-Ethylhexyl methacrylate],> 90 µM
2,"Cc1ccccc1NC(=N)Nc1ccccc1C [1,3-Bis(2-methylphenyl)guanidine]",> 90 µM
3,"CCOc1ccccc1OCC [1,2-Diethoxybenzene]",> 90 µM
4,C[n+]1cc2c3c(ccc2c2ccc4cc5c(cc4c21)OCO5)OCO3 [Sanguinarine],2.9 µM
5,CCO[Si](CCCS)(OCC)OCC [3-(Triethoxysilyl)propane-1-thiol],> 90 µM
6,"CC(=O)CC(=O)Nc1ccc2[nH]c(=O)[nH]c2c1 [3-Oxo-N-(2-oxo-2,3-dihydro-1H-benzimidazol-5-yl)butanamide]",> 90 µM
7,CCOC(=O)C(C)OC(=O)c1cc(Oc2ccc(C(F)(F)F)cc2Cl)ccc1[N+](=O)[O-] (centres unmarked) [Lactofen],> 90 µM
8,Cc1cc(C(F)(C(F)(F)F)C(F)(F)F)ccc1NC(=O)c1cccc(I)c1C(=O)NC(C)(C)CS(C)(=O)=O [Flubendiamide],> 70 µM
9,Cc1cccc(O)c1N [2-Amino-m-cresol],66.6 µM
10,CC(N)Cc1ccc(O)cc1 (centres unmarked) [Hydroxyamphetamine hydrobromide],> 50 µM
11,C1CNCCN1 [Piperazine],> 50 µM
12,C=CC(=O)CC [Ethyl vinyl ketone],> 90 µM
13,CCOC1O[C@H]([C@@H](COCc2ccccc2)OCc2ccccc2)[C@H](OCc2ccccc2)[C@H]1O (some centres unmarked) [Tribenoside],> 20 µM
14,CN1CCN=C(c2ccccc2)c2cc(Cl)ccc21 [Medazepam],> 50 µM
15,CCCCCC1=CCCC1=O [2-Pentyl-2-cyclopenten-1-one],> 90 µM
16,Oc1cccc(Cl)c1 [3-Chlorophenol],> 90 µM
17,Clc1ccc(C(Cn2ccnc2)OCc2csc3c(Cl)cccc23)c(Cl)c1 (centres unmarked) [Sertaconazole nitrate],18.4 µM
18,c1ccc2c(c1)Nc1ccccc1S2 [Phenothiazine],> 90 µM
19,CNc1cnn(-c2cccc(C(F)(F)F)c2)c(=O)c1Cl [Norflurazon],> 90 µM
20,C[N@+]12CCCC[C@@H]1CCC(=C(c1cccs1)c1cccs1)C2 (racemic) [Tiquizium bromide],> 50 µM
21,CCOc1ccc(NC(C)=O)cc1N [3-Amino-4-ethoxyacetanilide],> 90 µM
22,O=C(Oc1ccccc1)c1ccccc1O [Phenyl salicylate],> 50 µM
23,O=C(c1ccccc1)C1CCC1 [Cyclobutyl phenyl ketone],> 90 µM
24,CCC(=O)Nc1ccc(Cl)c(Cl)c1 [Propanil],> 90 µM
25,CCCCCOC(=O)COc1cc(N2C(=O)C3=C(CCCC3)C2=O)c(F)cc1Cl [Flumiclorac-pentyl],> 90 µM
26,CCOC(=O)COc1ccc(C)cc1 [(4-Methylphenoxy) acetic acid ethyl ester],> 90 µM

# Same assay, conditions: rat, gh3-tre-luc cells, AC50 (uM) modified / 1000, Tox21_110001=Tox21_110330; viability, 1 nM T3 present, 24 h
row,Structure (SMILES),CC50 at 24 h
1,CCC(=O)O[C@H]1CC[C@H]2[C@@H]3CCC4=CC(=O)CC[C@]4(C)[C@H]3CC[C@]12C [Testosterone propionate],> 20 µM

# Same assay, conditions: rat, gh3-tre-luc cells, AC50 (uM) modified / 1000, Tox21_110001=Tox21_112851; viability, 1 nM T3 present, 24 h
row,Structure (SMILES),CC50 at 24 h
1,"COc1ccc(OC)c(C[C@H](C)N)c1 [(2S)-1-(2,5-Dimethoxyphenyl)propan-2-amine hydrogen chloride (1:1)]",> 100 µM

# Same assay, conditions: rat, gh3-tre-luc cells, AC50 (uM) modified / 1000, Tox21_110001=Tox21_201057; viability, 1 nM T3 present, 24 h
row,Structure (SMILES),CC50 at 24 h
1,c1cc2c3c(c1)ccc1cccc(c13)C2 [4H-Cyclopenta(def)phenanthrene],> 90 µM

# Same assay, conditions: rat, gh3-tre-luc cells, AC50 (uM) modified / 1000, Tox21_110001=Tox21_201338; viability, 1 nM T3 present, 24 h
row,Structure (SMILES),CC50 at 24 h
1,CNC(=O)ON=CC(C)(C)S(C)(=O)=O [Aldoxycarb],> 90 µM

# Same assay, conditions: rat, gh3-tre-luc cells, AC50 (uM) modified / 1000, Tox21_110001=Tox21_301328; viability, 1 nM T3 present, 24 h
row,Structure (SMILES),CC50 at 24 h
1,COP(N)(=S)Oc1ccccc1C(=O)OC(C)C (centres unmarked) [Isocarbophos],> 90 µM

# Same assay, conditions: rat, gh3-tre-luc cells, AC50 (uM) modified / 1000, Tox21_110001=Tox21_301333; viability, 1 nM T3 present, 24 h
row,Structure (SMILES),CC50 at 24 h
1,CCCN(CCCl)c1c([N+](=O)[O-])cc(C(F)(F)F)cc1[N+](=O)[O-] [Fluchloralin],> 90 µM

# Same assay, conditions: rat, gh3-tre-luc cells, AC50 (uM) modified / 1000, Tox21_110001=Tox21_302121; viability, 1 nM T3 present, 24 h
row,Structure (SMILES),CC50 at 24 h
1,"ClCCCCCCCl [1,6-Dichlorohexane]",> 90 µM

# Same assay, conditions: rat, gh3-tre-luc cells, AC50 (uM) modified / 1000, Tox21_110001=Tox21_302270; viability, 1 nM T3 present, 24 h
row,Structure (SMILES),CC50 at 24 h
1,CCC(=O)O[C@H]1CC[C@H]2[C@@H]3CCC4=CC(=O)CC[C@]4(C)[C@H]3CC[C@]12C [Testosterone propionate],55 µM
